Test results published in patent US8097585B2, “Methods of treating inflammation by administration of heme oxygenase-1 and products of heme degradation” (priority 2002, dated 2012).
Structures can show the parent of a compound that is named as a salt.

What was measured:
NFAT = test: EMSA of nuclear extracts, NFAT DNA binding; type: cell-based; conditions: Jurkat T cells, PMA plus ionomycin, 100 μM biliverdin
Method: Nuclear protein extraction and electrophoretic mobility shift assay (EMSA). Jurkat T cells were cultured in 10% FCS supplemented RPMI 1640 with 50 nM phorbol myristyl acetate (PMA) and 2 μM ionomycin (both reagents from ICN Biomedicals) in the presence or absence of 100 μM biliverdin. Following 0, 2, and 4 hrs of stimulation, cells (30×10^6 cells for each group at each time points) were collected, washed twice with PBS, and pelleted. Nuclear and cytoplasmic extracts were prepared according to a modified Shapiro's method (Shapiro et al., DNA 7(1):47-55, 1988). Protein concentrations were determined by the Bradford assay. The following oligonucleotides (Invitrogen, Calsbad, Calif.) were used for EMSA:
NFAT, (coding) 5′-[…]-3′ (SEQ ID NO:5),
(non-coding) 5′-[…]-3′ (SEQ ID NO:6); and
Oligonucleotides were radioactively labeled with [^32P] ATP. The EMSA reactions were assembled as previously described (Usheva et al., Proc. Natl. Acad. Sci. USA 93(24):13571-6, 1996). Digital images from the EMSA radiographs were obtained using an image scanner.

TNF-alpha = test: Endotoxic shock (LPS) model, serum TNF-alpha; type: in vivo, Sprague-Dawley rats; conditions: biliverdin i.p. […] 17 h and 1 h prior to and 8 h after LPS 3 mg/kg i.v.
Method: Treatment Protocol. Endotoxin (lipopolysaccharide/LPS; Sigma; E. coli serotype 0128:B7; 3 mg/kg, i.v.) was administered to male Sprague-Dawley, resulting in an acute non-lethal inflammation. In rats, a sublethal dose of LPS results in a moderate lung inflammation characterized by neutrophil accumulation and protein accumulation in the airspace, both markers of lung inflammation. The pro-inflammatory cytokine TNF-alpha increases very rapidly in the serum, peaking by 60-90 minutes. This is followed by increases in IL-10, a prototypical anti-inflammatory cytokine that peaks 8-12 hr later.
Administration of Biliverdin. Biliverdin (Frontier Scientific: prepared in PBS following solubilization in NaOH) was administered i.p. at […] 17 hours prior to, one hour prior to, and eight hours after LPS administration.
Bronchoalveolar Lavage. A bronchoalveolar lavage (BAL) was performed 24 hours after LPS administration. Serum cytokines were measured using commercially available ELISA kits (R&D Systems Inc.) per the manufacturer's instructions. Total protein was determined via a standard Bradford assay based on a standard curve. […] Total cell count was determined as well as differential analysis of cell type and morphology via Diff-Quik® Fixative (American Scientific Products) staining of a sample of the lavagate.

[1] = test system: MPO positive cells in intestinal muscularis; test: Leukocyte recruitment into intestinal muscularis (MPO histochemistry); type: in vivo, LEW rats
Method: Small Intestinal Transplantation. Orthotopic small intestinal transplantation (SITx) was performed in syngeneic Lewis rats. SITx with caval drainage was performed using a previously described procedure (Murase et al., in Handbook of Animal Models in Transplantation Research, Cramer et al., Eds. CRC Press, Boca Raton, Fla., pp. 203-213 (1994)). […] The graft was perfused via the aortic segment with 5 ml chilled Ringer's lactate solution, and the intestinal lumen was irrigated with 20 ml of cold saline solution containing 0.5% neomycin-sulfate (Sigma, St. Louis, Mo.). End-to-side anastomoses between the graft aorta and the recipient infrarenal aorta, and between the graft portal vein and recipient vena cava, were performed with 10-0 Novafil™ suture. The cold ischemic time was 1 hour. The entire recipient intestine was removed and the enteric continuity was restored by proximal and distal end-to-end intestinal anastomoses. Recipient animals were given 20 mg/day prophylactic cefamandole nafate for 3 postoperative days. Transplanted recipients were given water 3 hours after surgery, and were fed 24 hours after surgery.
Leukocyte Recruitment. […] Myeloperoxidase (MPO) activity, as determined by Hanker-Yates histochemistry, was used to quantify the polymorphonuclear neutrophil (PMN) infiltrate in tissues from control and transplanted animals, with and without BV treatment. […]

TNF-α = test: Real time RT-PCR of graft muscularis after SITx, TNF-α; type: in vivo, LEW rats; conditions: BV treatment, 4 hours
Method: (§1) Small Intestinal Transplantation. Orthotopic small intestinal transplantation (SITx) was performed in syngeneic Lewis rats. SITx with caval drainage was performed using a previously described procedure (Murase et al., in Handbook of Animal Models in Transplantation Research, Cramer et al., Eds. CRC Press, Boca Raton, Fla., pp. 203-213 (1994)). […] The graft was perfused via the aortic segment with 5 ml chilled Ringer's lactate solution, and the intestinal lumen was irrigated with 20 ml of cold saline solution containing 0.5% neomycin-sulfate (Sigma, St. Louis, Mo.). […]
(§2) SYBR green real time RT-PCR. The effects of administration of biliverdin on transplant-induced pro-inflammatory and anti-inflammatory gene expression were assessed in muscularis extracts by RT-PCR Biliverdin ([…], i.p.) was administered to both the donor and recipient three hours preoperatively. […] Equal aliquots (5 μg) of total RNA from each sample were quantified by spectrophotometry (wavelength […]) and aliquoted at a concentration of 40 ng/μl. Peak mRNA expression was quantified in duplicate by SYBR Green two-step, real-time RT-PCR. […] Real-time PCR data were plotted as the ΔRn fluorescence signal versus the cycle number. […] Quantification of mRNA expression was normalized to GAPDH and calculated relative to control using the comparative CT method (Schmittgen et al., J. Biochem. Biophys. Methods 46(1-2):69-8, 2000). […]

iNOS = test: Real time RT-PCR of graft muscularis after SITx, iNOS; type: in vivo, LEW rats
Method: as §1, §2

C=CC1=C(C)/C(=C/C2=NC(=C\c3[nH]c(/C=C4\NC(=O)C(C)=C4C=C)c(C)c3CCC(=O)O)/C(CCC(=O)O)=C2C)NC1=O [biliverdin, biliverdin dihydrochloride]
DNA binding of NFAT (NFAT): inhibited DNA binding
levels of LPS-induced TNF-alpha (TNF-alpha): reduced
mean number of MPO positive cells ([1]; 24 hours after SITx): significantly decreased
MPO positive cells ([1]; BV injection into normal animals): 3.9±1.3 cells per ×200 field
upregulation of TNF-α mRNA caused by transplantation (TNF-α): did not significantly change
reduction of mean relative iNOS mRNA expression (iNOS; BV treated rats, graft muscularis): approximately 50%
mRNA expression of iNOS or COX-2 (iNOS; BV treatment of unoperated control animals): did not alter
